# Measured values reported in patent US7056947B2, “Aza-peptide epoxides” (Georgia Tech Research Corp., priority 2002, dated 2006).
# Columns and labels:
# caspase-3 = biological target: T1, caspase-3 (Homo sapiens, UniProt P42574); assay: Caspase-3 progress curve assay; format: biochemical; details: substrate Z-DEVD-AFC; NI = no inhibition
# T1 construct: made in house; host or cells: E. coli
# T1 sequence (P42574 29-175 limits assumed): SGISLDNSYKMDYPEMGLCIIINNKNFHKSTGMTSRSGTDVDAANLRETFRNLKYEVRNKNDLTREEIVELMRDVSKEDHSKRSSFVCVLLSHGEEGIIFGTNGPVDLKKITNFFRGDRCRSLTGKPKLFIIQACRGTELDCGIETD
# T1 sequence (P42574 176-277 limits assumed): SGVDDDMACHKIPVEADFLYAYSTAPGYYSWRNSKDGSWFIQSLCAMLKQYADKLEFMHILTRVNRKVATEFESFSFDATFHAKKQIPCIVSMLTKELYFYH
# Protocol: Caspase-3, -6, and -8. Caspase-3, -6 and -8 were expressed in E. coli and purified according to methods previously described by Stennicke and Salvesen. Assays using the fluorogenic substrate Z-DEVD-AFC (λex=400 nm, λem=505 nm) were carried out on a Molecular Devices fMax fluorescence microplate reader. Inhibition rates and equilibria were determined by the progress curve method. The standard 100 μL reaction was started by adding enzyme to a mixture of substrate (final concentration of Z-DEVD-AFC 100 μM) and various amounts of inhibitor in buffer (50 mM Hepes, 100 mM NaCl, 0.1% (w/v) CHAPS, sucrose 10% (w/v), and 10 mM DTT, at pH 7.4). The caspases were pre-activated for 10 min at 37° C. in the presence of 10 mM DTT.
# caspase-1 = biological target: T2, caspase-1 (Homo sapiens, UniProt P29466, D381E); assay: Caspase-1 progress curve assay; format: biochemical; details: D381E variant, substrate Ac-YVAD-AMC, 30° C.
# T2 construct: His tag (N); made in house; host or cells: E. coli
# T2 sequence (P29466 120-297 limits assumed): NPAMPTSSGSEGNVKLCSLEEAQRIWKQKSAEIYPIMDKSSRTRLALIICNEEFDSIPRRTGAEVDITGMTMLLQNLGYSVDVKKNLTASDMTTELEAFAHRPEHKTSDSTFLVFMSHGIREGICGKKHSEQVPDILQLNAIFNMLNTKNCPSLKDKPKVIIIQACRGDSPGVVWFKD
# T2 sequence (P29466 317-404 D381E limits assumed): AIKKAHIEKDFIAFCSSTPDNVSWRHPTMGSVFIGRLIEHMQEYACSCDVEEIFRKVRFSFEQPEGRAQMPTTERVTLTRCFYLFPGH
# Description: Caspase-1. The preparation of the autolytically stable caspase-1 variant used in these studies has been described previously. Briefly, the variant contains a mutation (D381E) which renders it resistant to autolytic inactivation, but has no detectable affect on enzyme activity as compared to the naturally occurring enzyme. The enzyme variant was expressed in E. coli, purified first by immobilized metal chromatography via the N-terminal N-His tag, treated with excess oxidized glutathione to stabilize the reactive thiolate, and then re-purified by size-exclusion chromatography.
# Inhibition data was measured using the progress curve assay method. Serial dilutions of each compound were prepared using an initial 8-fold dilution of a DMSO stock into HGE (100 mM HEPES,20% glycerol v/v, 0.5 mM EDTA), followed by seven serial two-fold dilutions into HGE and 12.5% DMSO, thus maintaining constant DMSO through the dilution series. Ten μL of diluted stocks or of vehicle (HGE and 12.5% DMSO) were placed in triplicate onto a 96-well microtiter plate, allowing several compounds to be tested on each plate. The plate was covered to minimize evaporation, and the plate was pre-warmed to 30° C. for 20 minutes. Enzyme was diluted into 10.0 mL of assay buffer (HGE, 5 mM DTT, plus 15 μM Ac-YVAD-AMC, 2 nM approximate final enzyme concentration), and this activated reaction mixture was added to the plate at 90 μL/well. Progress of substrate hydrolysis was monitored for 900 s in a LabSystems (Needham, Mass.) Fluoroskan Ascent fluorescent plate-reader using 385 and 460 nm excitation and emission filters, respectively, and a photomultiplier gain setting of 10. Triplicate curves were averaged and fit by nonlinear regression to the equation for irreversible inactivation shown below.
# [formula] where F0 was routinely fixed to zero, since fluorescence values were always adjusted to an origin of 0. The second order rate constant kon (M^−1s^−1) was obtained from the slopes by linear regression, and errors represent the standard deviation of the regression slope.
SMILES,k2 caspase-3 (caspase-3) [M⁻¹ s⁻¹],k2 caspase-1 (caspase-1) [M⁻¹ s⁻¹]
"CC(C)[C@H](NC(=O)CCc1ccccc1)C(=O)N[C@@H](C)C(=O)NN(CC(=O)O)C(=O)[C@H]1O[C@@H]1C(=O)NCCc1ccccc1 [23h (S,S), (2S,3S)-2-(2-Phenethylcarbamoyl)-3-(N^2-(3-phenylpropanoylvalylalanyl)-N^1-carboxymethylhydrazinocarbonyl)oxirane]",1110 ± 100,17150 ± 2254
"CC(C)[C@H](NC(=O)CCc1ccccc1)C(=O)N[C@@H](C)C(=O)NN(CC(=O)O)C(=O)[C@H]1O[C@@H]1C(=O)NCC(O)c1ccccc1 (stereo partly drawn) [23i (S,S), (2S,3S)-2-(2-Hydroxy-2-phenylethylcarbamoyl)-3-(N^2-(3-phenylpropanoylvalylalanyl)-N^1-carboxymethylhydrazinocarbonyl)oxirane]",510 ± 100,12260 ± 19
"CC(NC(=O)[C@H]1O[C@@H]1C(=O)N(CC(=O)O)NC(=O)[C@H](C)NC(=O)[C@@H](NC(=O)CCc1ccccc1)C(C)C)C(=O)NCc1ccccc1 (stereo partly drawn) [23j (S,S), (2S,3S)-2-(1-Benzylcarbamoylethylcarbamoyl)-3-(N^2-(3-phenylpropanoylvalylalanyl)-N^1-carboxymethylhydrazinocarbonyl)oxirane]",260 ± 25,13400
"CC(C)CC(NC(=O)[C@H]1O[C@@H]1C(=O)N(CC(=O)O)NC(=O)[C@H](C)NC(=O)[C@@H](NC(=O)CCc1ccccc1)C(C)C)C(N)=O (stereo partly drawn) [23k, (2S,3S)-2-(3-Methyl-1-amido-butylcarbamoyl)-3-(N^2-(3-phenylpropanoylvalylalanyl)-N^1-carboxymethylhydrazinocarbonyl)oxirane]",420 ± 6,26090 ± 2562
"CC(C)[C@H](NC(=O)CCc1ccccc1)C(=O)N[C@@H](C)C(=O)NN(CC(=O)O)C(=O)[C@H]1O[C@@H]1C(=O)NC(Cc1ccccc1)C(N)=O (stereo partly drawn) [23l (S,S), (2S,3S)-2-(1-Amido-phenethylcarbamoyl)-3-(N^2-(3-phenylpropanoylvalylalanyl)-N^1-carboxymethylhydrazinocarbonyl)oxirane]",625 ± 160,32740 ± 9937
"CC(C)[C@H](NC(=O)CCc1ccccc1)C(=O)N[C@@H](C)C(=O)NN(CC(=O)O)C(=O)[C@H]1O[C@@H]1C(=O)NC(Cc1ccc(O)cc1)C(N)=O (stereo partly drawn) [23m, (2S,3S)-2-(2-Amido-phenyl(4-hydroxy)ethylcarbamoyl)-3-(N^2-(3-phenylpropanoylvalylalanyl)-N^1-carboxymethylhydrazinocarbonyl)oxirane]",87 ± 4,3245 ± 2330
"CCOC(=O)[C@@H]1O[C@H]1C(=O)N(CC(=O)O)NC(=O)[C@@H](NC(=O)[C@H](CCC(=O)O)NC(=O)[C@H](CC(=O)O)NC(=O)OCc1ccccc1)C(C)C [25c (R,R), (2R,3R)-3-(N^2-(N-Benzyloxycarbonylaspartylglutamylvalyl)-N^1-carboxymethylhydrazinocarbonyl)oxirane-2-carboxylic Acid Ethyl Ester]",464420 ± 186300,4320 ± 830
"CCOC(=O)[C@H]1O[C@@H]1C(=O)N(CC(=O)O)NC(=O)[C@@H](NC(=O)[C@H](CCC(=O)O)NC(=O)[C@H](CC(=O)O)NC(=O)OCc1ccccc1)C(C)C [25c (S,S), (2S,3S)-3-(N^2-(N-Benzyloxycarbonylaspartylglutamylvalyl)-N^1-carboxymethylhydrazinocarbonyl)oxirane-2-carboxylic Acid Ethyl Ester]",1074440 ± 154710,11840 ± 1214
"CCOC(=O)[C@@H]1O[C@H]1C(=O)N(CC(=O)O)NC(=O)[C@@H](NC(=O)[C@H](CCC(=O)O)NC(=O)[C@@H](NC(=O)OCc1ccccc1)[C@@H](C)CC)[C@@H](C)O [27c (R,R), (2R,3R)-3-(N^2-(N-Benzyloxycarbonylisoleucylglutamylthreonyl)-N^1-carboxymethylhydrazinocarbonyl)oxirane-2-carboxylic Acid Ethyl Ester]",2630 ± 365,13260 ± 3684

# Next, values leading:
k2 caspase-3 (caspase-3) [M⁻¹ s⁻¹],k2 caspase-1 (caspase-1) [M⁻¹ s⁻¹],SMILES
50500 ± 2075,58500,"CCOC(=O)[C@H]1O[C@@H]1C(=O)N(CC(=O)O)NC(=O)[C@@H](NC(=O)[C@H](CCC(=O)O)NC(=O)OCc1ccccc1)C(C)C [24c, (2S,3S)-3-(N^2-(N-Benzyloxycarbonylglutamylvalyl)-N^1-carboxymethylhydrazinocarbonyl)oxirane-2-carboxylic Acid Ethyl Ester]"
27330 ± 5430,41070 ± 440,"CC(C)[C@H](NC(=O)[C@H](CCC(=O)O)NC(=O)OCc1ccccc1)C(=O)NN(CC(=O)O)C(=O)[C@H]1O[C@@H]1C(=O)NCCc1ccccc1 [24h, (2S,3S)-2-(2-Phenethylcarbamoyl)-3-(N^2-(N-benzyloxycarbonylglutamylvalyl)-N^1-carboxymethylhydrazinocarbonyl)oxirane]"
1915200 ± 209200,54690 ± 15913,"CC(C)[C@H](NC(=O)[C@H](CCC(=O)O)NC(=O)[C@H](CC(=O)O)NC(=O)OCc1ccccc1)C(=O)NN(CC(=O)O)C(=O)[C@H]1O[C@@H]1C(=O)OCc1ccccc1 [25d, (2S,3S)-3-(N^2-(N-Benzyloxycarbonylaspartylglutamylvalyl)-N^1-carboxymethylhydrazinocarbonyl)oxirane-2-carboxylic Acid Benzyl Ester]"
1097820 ± 94860,25420 ± 4013,"CC(C)[C@H](NC(=O)[C@H](CCC(=O)O)NC(=O)[C@H](CC(=O)O)NC(=O)OCc1ccccc1)C(=O)NN(CC(=O)O)C(=O)[C@H]1O[C@@H]1C(=O)NCc1ccccc1 [25g, (2S,3S)-2-(2-Benzylcarbamoyl)-3-(N^2-(N-benzyloxycarbonylaspartylglutamylvalyl)-N^1-carboxymethylhydrazinocarbonyl)oxirane]"
722180 ± 340860,9250 ± 2835,"CC(C)[C@H](NC(=O)[C@H](CCC(=O)O)NC(=O)[C@H](CC(=O)O)NC(=O)OCc1ccccc1)C(=O)NN(CC(=O)O)C(=O)[C@H]1O[C@@H]1C(=O)N[C@@H](Cc1ccccc1)C(N)=O [25l, Cbz-Asp-Glu-Val-AAsp-(S,S)-EP-CO-Phe-NH2]"
3520 ± 600,43500 ± 2150,"CC(C)C[C@H](NC(=O)OCc1ccccc1)C(=O)N[C@@H](CCC(=O)O)C(=O)N[C@H](C(=O)NN(CC(=O)O)C(=O)[C@H]1O[C@@H]1C(=O)OCc1ccccc1)[C@@H](C)O [26d, (2S,3S)-3-(N^2-(N-Benzyloxycarbonylleucylglutamylthreonyl)-N^1-carboxymethylhydrazinocarbonyl)oxirane-2-carboxylic Acid Benzyl Ester]"
